Assays:
[1] = molecular target: T1, Glutamate receptor ionotropic, AMPA (Rattus norvegicus, UniProt P19490+P19491+P19492+P19493); assay: Ability of compound to displace [3H]AMPA from Ionotropic glutamate receptor AMPA in rat cerebral cortex synaptic membranes; format: cell membranes, Membrane
[2] = molecular target: Glutamate receptor ionotropic, kainate; assay: Ability of compound to displace [3H]- kainate from ionotropic glutamate receptor kainate in rat cortical membranes; format: cell membranes, Membrane
[3] = molecular target: Glutamate receptor ionotropic, NMDA 1 (Rattus norvegicus, UniProt P35439); assay: Ability of compound to displace [3H]glycine from N-methyl-D-aspartate glutamate receptor 1 from in cerebral cortex synaptic membranes; format: cell membranes
[4] = Ability of compound to inhibit the binding of the channel blocking agent [3H](+)-MK-801 in rat cortical membranes; format: cell membranes, Membrane
Glutamate NMDA receptor [5] = assay: Inhibitory concentration of compound for depolarization induced by 5 uM NMDA in mouse cortical wedge preparation; format: protein-complex assay
Rattus norvegicus = organism: Rattus norvegicus; assay: Ability of compound to inhibit the binding of the channel blocking agent [3H](+)-MK-801 in rat cortical membranes at 100 uM concentration; format: cell membranes; conditions: Membrane
[6] = molecular target: T1, Glutamate receptor ionotropic, AMPA
Description: Inhibitory concentration of compound for depolarization induced by 5 uM S-AMPA in mouse cortical wedge preparation

Glutamate NMDA receptor [7] = molecular target: Glutamate NMDA receptor

| Compound | Ki [1] [µM] | IC50 [2] [µM] | Ki [3] [µM] | IC50 [4] [µM] | IC50 (Glutamate NMDA receptor [5]) [µM] | IC50 [6] [µM] | Ki (Glutamate NMDA receptor [7]) [µM] | inhibition (Rattus norvegicus) [%] |
| --- | --- | --- | --- | --- | --- | --- | --- | --- |
| O=c1[nH]c2cc(Cl)c(-n3cnnc3)cc2c(=O)n1O | 0.25 | 7 | > 100 |  | 84 | 4.6 |  | 29 |
| O=C(O)c1cc(O)c2c(Cl)cc(Cl)cc2n1 |  |  |  |  |  |  | 4.7 |  |
| O=c1[nH]c2cc(Cl)cc(Cl)c2c(=O)n1-c1ccccc1 |  |  | 23 |  |  |  |  |  |
| O=c1[nH]c2cc(Cl)c([N+](=O)[O-])cc2c(=O)n1O | 1.3 | 19.2 | 1.1 | 1.7 | 36 | 29 |  |  |
| O=c1[nH]c2cc(Cl)cc(Cl)c2c(=O)n1O | 9.8 | 52 | 0.2 | 0.75 | 42 | 33 |  |  |

More lines, main results first:

| Ki [1] [µM] | IC50 [2] [µM] | Ki [3] [µM] | IC50 [4] [µM] | IC50 (Glutamate NMDA receptor [5]) [µM] | IC50 [6] [µM] | Ki (Glutamate NMDA receptor [7]) [µM] | Compound | inhibition (Rattus norvegicus) [%] |
| --- | --- | --- | --- | --- | --- | --- | --- | --- |
| 12.5 | 68 | 0.3 | 0.43 |  |  |  | O=c1[nH]c2cc(Cl)c(Cl)cc2c(=O)n1O |  |
| 11.6 | 140 | 0.24 | 4.8 |  |  |  | O=c1[nH]c2cc(Cl)ccc2c(=O)n1O |  |
| 9.7 | 70 | 10.6 | 89 |  |  |  | Nc1cc2c(=O)n(O)c(=O)[nH]c2cc1Cl |  |
